From PubChem BioAssay (NCI)
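Exposure lasted 48 hours, with cells grown in 96-well plates and compounds tested at five concentrations. GI50: concentration for 50% inhibition of growth. TGI: concentration producing complete growth inhibition.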

Legend:
Assay in all cases: inhibition of tumour cell growth, NCI panel, 48 h
786-0 renal = system: 786-0 renal
SK-MEL-2 melanoma = system: SK-MEL-2 melanoma
ACHN renal = system: ACHN renal
MDA-MB-468 breast = system: MDA-MB-468 breast
HOP-92 NSCLC = system: HOP-92 NSCLC
UO-31 renal = system: UO-31 renal
BT-549 breast = system: BT-549 breast
HCT-116 colon = system: HCT-116 colon
SK-MEL-28 melanoma = system: SK-MEL-28 melanoma
NCI/ADR-RES ovarian = system: NCI/ADR-RES ovarian
SW-620 colon = system: SW-620 colon
SF-539 CNS = system: SF-539 CNS
RPMI-8226 leukemia = system: RPMI-8226 leukemia
COLO 205 colon = system: COLO 205 colon
LOX IMVI melanoma = system: LOX IMVI melanoma
HCC-2998 colon = system: HCC-2998 colon
PC-3 prostate = system: PC-3 prostate
HS 578T breast = system: HS 578T breast
TK-10 renal = system: TK-10 renal
NCI-H23 lung = system: NCI-H23 lung
KM12 colon = system: KM12 colon
M14 melanoma = system: M14 melanoma
SK-MEL-5 melanoma = system: SK-MEL-5 melanoma
IGROV1 ovarian = system: IGROV1 ovarian
HL-60(TB) leukemia = system: HL-60(TB) leukemia
OVCAR-5 ovarian = system: OVCAR-5 ovarian
SNB-19 CNS = system: SNB-19 CNS
UACC-257 melanoma = system: UACC-257 melanoma
OVCAR-3 ovarian = system: OVCAR-3 ovarian
MCF7 breast = system: MCF7 breast

## CN(CCO)c1oc(-c2ccccc2)nc1[P+](c1ccccc1)(c1ccccc1)c1ccccc1
786-0 renal
  TGI: 20.8 µM
SK-MEL-2 melanoma
  GI50: 1.96 µM
  TGI: 5.43 µM
ACHN renal
  GI50: 8.36 µM
  TGI: 41.6 µM
MDA-MB-468 breast
  GI50: 0.285 µM
  TGI: 1.37 µM
HOP-92 NSCLC
  GI50: 1.22 µM
  TGI: 4.9 µM
UO-31 renal
  GI50: 19 µM
  TGI: 54.3 µM
BT-549 breast
  GI50: 1.78 µM
  TGI: 7.08 µM
HCT-116 colon
  GI50: 2.84 µM
  TGI: 12 µM
SK-MEL-28 melanoma
  GI50: 1.54 µM
  TGI: 12.7 µM
NCI/ADR-RES ovarian
  GI50: > 100 µM
  TGI: > 100 µM
SW-620 colon
  GI50: 2.9 µM
  TGI: 23.1 µM
SF-539 CNS
  GI50: 2.74 µM
  TGI: 12.1 µM
RPMI-8226 leukemia
  GI50: 0.393 µM
  TGI: 4.03 µM
COLO 205 colon
  GI50: 1.46 µM
  TGI: 3.28 µM
LOX IMVI melanoma
  GI50: 2.21 µM
  TGI: 10.1 µM
HCC-2998 colon
  GI50: 1.82 µM
  TGI: 12.4 µM
PC-3 prostate
  GI50: 1.75 µM
  TGI: 10.4 µM
HS 578T breast
  GI50: 2.39 µM
  TGI: 9.08 µM
TK-10 renal
  GI50: 3.5 µM
  TGI: 15.2 µM
NCI-H23 lung
  GI50: 2.27 µM
  TGI: 7.25 µM
KM12 colon
  GI50: 2.12 µM
  TGI: 10.2 µM
M14 melanoma
  GI50: 2.81 µM
  TGI: 12.4 µM
SK-MEL-5 melanoma
  GI50: 1.15 µM
  TGI: 2.52 µM
IGROV1 ovarian
  GI50: 0.802 µM
  TGI: 7.45 µM
HL-60(TB) leukemia
  GI50: 0.535 µM
  TGI: 2.73 µM
OVCAR-5 ovarian
  GI50: 2.27 µM
  TGI: 8.21 µM
SNB-19 CNS
  GI50: 2.01 µM
  TGI: 7.95 µM
UACC-257 melanoma
  GI50: 1.95 µM
  TGI: 9.63 µM
OVCAR-3 ovarian
  GI50: 1.08 µM
  TGI: 12.6 µM
MCF7 breast
  GI50: 1.21 µM
  TGI: 6.84 µM
